Laboratory results taken from ChEMBL document CHEMBL1145689, “Phospholipase A 2 Inhibitors from an Erythrina Species from Samoa” (J Nat Prod, 1997).

molecular target: Phospholipase A2 (Homo sapiens, UniProt P04054); test: Inhibition of PLA2 in fMLP and A23187 ionophore-stimulated human HL60 cells assessed as effect on [3H]arachidonic acid release; format: cell-based; conditions: hl-60
Sequence (P04054 whole entry): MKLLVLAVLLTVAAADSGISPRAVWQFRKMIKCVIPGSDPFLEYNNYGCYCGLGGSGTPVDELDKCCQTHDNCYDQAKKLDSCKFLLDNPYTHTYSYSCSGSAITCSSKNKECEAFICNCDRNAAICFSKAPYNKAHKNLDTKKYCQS

Question: How did the IC50 turn out when CC(C)=CCc1cc2c(cc1O)OCc1c-2oc2c(CC=C(C)C)c(O)ccc12 [ERYCRYSTAGALLIN] was run?
Answer: Its IC50 is 3 µM.

Question: For CC(C)=CCc1cc(C2CC(=O)c3c(cc(O)c(CC=C(C)C)c3O)O2)cc(CC=C(C)C)c1O (stereo not drawn), which IC50 is on record?
Answer: Its IC50 is 10 µM.

Question: How did the IC50 turn out when CC(C)=CCc1cc([C@@H]2CC(=O)c3c(O)cc(O)cc3O2)cc(CC=C(C)C)c1O [ABYSSINONE V] was run?
Answer: Its IC50 is 6 µM.
